Reference: US6057371A, “Sigma receptor ligands and the use thereof” (Virginia Commonwealth University, priority 1992, dated 2000)
Where two headings read alike, the source gives them in different places.

Columns and labels:
[1] = molecular target: PCP receptor; test: PCP receptor binding, ^3 H-MK-801; design: species or system rat; conditions: Table 4
Procedure: PCP receptor binding assays against ^3 H-MK-801 were conducted as described by Keana et al., Proc. Natl. Acad. Sci (USA) 86: 5631-5635 (1989); Keana et al., Life Sciences 43: 965-973 (1988). For (+) ^3 H-MK-801 binding, 1 nM of radioligand was incubated with about 100 ug of thawed rat brain membrane protein for 4 hr at room temperature. The assays were carried out in 5 mM Tris/acetate and were stopped by rapid filtration through Whatman GF/B or Schleicher & Schuell no. 32 glass fiber filters (presoaked in 0.05% polyethylenamine).

[2] = molecular target: T1, 5-HT1A receptor (Rattus norvegicus, UniProt P19327); test: biochemical; format: binding; design: 47: 529-540 (1986); from tissue; host or cells: brain tissue, inferred from the cited method (rat frontal cortex)
T1 sequence (P19327 1-422): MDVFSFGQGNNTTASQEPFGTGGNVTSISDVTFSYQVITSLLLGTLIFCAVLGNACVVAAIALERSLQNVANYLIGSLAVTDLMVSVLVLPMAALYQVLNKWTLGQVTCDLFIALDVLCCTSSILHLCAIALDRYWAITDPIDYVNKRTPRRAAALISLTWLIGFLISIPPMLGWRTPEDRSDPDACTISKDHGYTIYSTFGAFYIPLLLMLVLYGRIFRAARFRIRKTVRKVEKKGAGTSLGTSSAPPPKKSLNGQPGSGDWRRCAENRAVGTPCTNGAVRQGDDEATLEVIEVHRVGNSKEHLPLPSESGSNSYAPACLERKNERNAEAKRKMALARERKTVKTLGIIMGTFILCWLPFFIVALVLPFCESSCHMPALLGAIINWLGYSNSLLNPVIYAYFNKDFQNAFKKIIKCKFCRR
Procedure: Further sigma receptor binding assays against [^3 H]DTG and 5HT-1A binding assays were conducted according to the procedure outlined in the previous examples.

[3] = molecular target: sigma receptor; test: Sigma receptor binding, [^3 H]DTG, brain membranes (both sigma-1 and sigma-2 sites); design: species or system guinea pig; conditions: for IC50: Table 6, [^3 H]DTG
[4] = molecular target: T2, sigma-1 binding site (Cavia porcellus, UniProt Q60492); test: biochemical; design: species or system guinea pig
T2 construct: Guinea pig whole membrane preparations (P2 microsomal fraction); from tissue; host or cells: guinea pig membranes (P2 microsomal fraction), as described by Weber et al; brain inferred from the sister test b489
T2 sequence (Q60492 whole entry): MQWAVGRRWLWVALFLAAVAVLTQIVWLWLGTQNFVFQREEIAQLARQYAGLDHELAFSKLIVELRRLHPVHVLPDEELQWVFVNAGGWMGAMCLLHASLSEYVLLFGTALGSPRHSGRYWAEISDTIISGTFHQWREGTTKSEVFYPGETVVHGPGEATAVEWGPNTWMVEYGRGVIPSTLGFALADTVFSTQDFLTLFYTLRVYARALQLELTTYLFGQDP
Procedure: [^3 H]DTG was purchased from DuPont/NEN.
The radioactivity on the filters was determined by scintillation spectrometry at an efficiency of about 50% using Cytoscint (ICN) scintillation fluid.

[5] = molecular target: T3, sigma-2 binding site (Cavia porcellus, UniProt H0V073); test: biochemical; design: species or system guinea pig; conditions: for Ki: Table 10, read-out: SIGMA-2 KI vs. 3H-DTG + PENTAZOCINE MEAN
T3 construct: Guinea pig whole membrane preparations (P2 microsomal fraction); from tissue; host or cells: guinea pig membranes (P2 microsomal fraction), as described by Weber et al; brain inferred from the sister test b489
T3 sequence (H0V073 1-176): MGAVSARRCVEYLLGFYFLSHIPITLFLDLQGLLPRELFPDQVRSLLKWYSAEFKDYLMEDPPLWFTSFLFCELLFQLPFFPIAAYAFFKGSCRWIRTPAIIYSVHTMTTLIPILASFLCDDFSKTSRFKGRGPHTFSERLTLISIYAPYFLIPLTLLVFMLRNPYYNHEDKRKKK
Procedure: For the standard equilibrium assay, the mixtures were incubated for 30 min. at room temperature, then filtered and the radioactivity determined as described above.

[6] = Table 10, read-out: SIGMA-1 KI vs. 3H-PENTAZOCINE MEAN
[7] = less than about 0.1, see Table 10
[8] = Table 6, read-out: 5HT-1A (nM) MEAN
[9] = Table 7, Phenyl-(CH2)x -NH--(CH2)y -Phenyl, read-out: Ki
[10] = Table 18, read-out: IC50 (nM) at sigma-2
[11] = Table 15, read-out: IC50 (nM) at sigma-1

| SMILES | IC50 [1] | Ratio 5-HT1A /σ ([2]; Table 5) | IC50 ([2]; Table 5, read-out: 5-HT1A IC50) | IC50 [3] | Ki [4, 6] | S1/S2 Ratio ([4]; Table 10, sigma-1/sigma-2) | IC50 ratio of sigma-1/sigma-2 (sigma-1 selective compounds) [4, 7] | Ki [5] | IC50 [2, 8] | Ki [3, 9] | further results |
| --- | --- | --- | --- | --- | --- | --- | --- | --- | --- | --- | --- |
| FC(F)(F)c1cccc(N2CCN(CCCCc3ccccc3)CC2)c1 [Compound 47] | > 10000 nM | 1.6 | 9.23 nM |  |  |  |  |  |  |  |  |
| Clc1cccc(N2CCN(CCCc3ccccc3)CC2)c1 [Compound 33] | > 10000 nM | 2.6 | 51.6 nM |  |  |  |  |  |  |  |  |
| CCN[C@H](C)Cc1ccccc1 [Compound 4] | > 10000 nM | 5.9 | 4050 nM |  |  |  |  |  |  |  |  |
| C[C@@H](Cc1ccccc1)N(C)CCCc1ccccc1 [Compound 113, N-Methyl-N-(3-phenylpropyl)-1-phenylisopropylamine] |  |  |  | 2.22 nM | 0.51 nM | 0.105 | less than 0.1 | 4.87 nM | 2150 nM |  |  |
| c1ccc(CNCCCCCC2CCCCC2)cc1 [Compound 94, N-(5-cyclohexylpentyl)benzylamine] |  |  |  | 4.02 nM |  |  |  | 43.6 nM | 5550 nM |  | Ki ([3]; Examples 5 and 6, listed as N-benzyl-(5-cyclohexyl)pentylamine, read-out: sigma receptor Ki): 1.3 nM; Ki ([3]; running text, Examples 5 and 6, read-out: sigma receptor Ki): 3.4 nM; IC50 [4]: 0.81 nM; IC50 ratio of sigma-1/sigma-2 (sigma-1 selective compounds) [4]: less than 0.1; Ki ([4]; SIGMA-1 KI vs. 3H-P[…]): 0.81 nM; S1/S2 Ratio ([4]; guinea pig, microsomes): 0.019 |
| c1ccc(CCCCN2CCN(c3ccccc3)CC2)cc1 [Compound 48] | > 10000 nM | 2.3 | 6.3 nM |  |  |  |  |  |  |  |  |
| C[C@@H](N)Cc1ccc(I)cc1 [Compound 29] | > 10000 nM | 3.1 | 15500 nM |  |  |  |  |  |  |  |  |
| C[C@H](N[C@@H](C)Cc1ccccc1)c1ccccc1 [Compound 26] | > 10000 nM | 3.5 | 10000 nM |  |  |  |  |  |  |  |  |
| c1ccc(CCCCCCCNCc2ccccc2)cc1 [Compound 90, N-(7-phenylheptyl)benzylamine] |  |  |  | 3.95 nM |  |  |  | 38.5 nM | 3210 nM | 3.6 nM | IC50 ratio of sigma-1/sigma-2 (sigma-1 selective compounds) [4]: less than 0.1; sigma-2/sigma-1 selectivity [4]: 126; Ki ([4]; SIGMA-1 KI vs. 3H-P[…]): 2.3 nM; S1/S2 Ratio ([4]; guinea pig, microsomes): 0.060 |
| c1ccc(CCCCCN2CCC(Cc3ccccc3)CC2)cc1 [Compound 117, N-(5-phenylpentyl)-4-benzylpiperidine] |  |  |  | 2.11 nM | 0.58 nM | 0.210 |  | 2.78 nM | 781 nM |  |  |
| C[C@H](Cc1ccccc1)NCc1ccccc1 [Compound 6] | > 10000 nM | 31 | 3780 nM |  |  |  |  |  |  |  |  |
| c1ccc(CCCCNCCc2ccccc2)cc1 [Compound 71, N-(4-phenylbutyl)phenethylamine] |  |  |  | 5.68 nM | 2.6 nM | 0.022 | less than 0.1 | 119 nM | 225 nM | 5.5 nM | IC50 ([5]; Example 9, read-out: sigma-2 IC50): 120 nM |
| c1ccc(CCCCCNCCCCc2ccccc2)cc1 [Compound 76, N-(5-phenylpentyl)-(4-phenyl)butylamine] |  |  |  | 2.65 nM |  |  |  | 68 nM | 119 nM | 2.5 nM | IC50 [4]: 0.48 nM; IC50 ratio of sigma-1/sigma-2 (sigma-1 selective compounds) [4]: less than 0.1; Ki ([4]; SIGMA-1 KI vs. 3H-P[…]): 0.48 nM; S1/S2 Ratio ([4]; guinea pig, microsomes): 0.007; IC50 [5, 10]: 48 nM |
| CCOc1ccc(CC(C)NCCCc2ccccc2)cc1 (racemic) [Compound 83, N-(3-phenylpropyl)-1-(p-ethoxyphenyl)-2-propylamine] |  |  |  | 7.08 nM | 3.38 nM | 0.101 | less than 0.1 | 33.5 nM | 77.7 nM |  | IC50 ([4]; Table 12, read-out: IC50 (nM) at sigma-1): 3.4 nM; IC50 ([5]; Table 17, read-out: IC50 (nM) at sigma-2): 34 nM |
| c1ccc(CCCCCNCCCc2ccccc2)cc1 [Compound 111, N-(5-phenylpentyl)-3-phenylpropylamine] |  |  |  | 2.73 nM | 0.28 nM | 0.029 | less than 0.1 | 9.84 nM | 92.2 nM | 1.8 nM | IC50 [4, 11]: 0.28 nM; IC50 [5, 10]: 9.8 nM |
| c1ccc(CCCCCNCc2ccccc2)cc1 [Compound 77, N-(5-phenylpentyl)benzylamine] |  |  |  | 2.07 nM | 0.32 nM | 0.009 | less than 0.1 | 34.3 nM | 759 nM | 2 nM | IC50 [4, 11]: 0.32 nM; IC50 [5, 10]: 34 nM |
